{
  "source": "patent US5096904A",
  "about": "“Pyridazinones having cardiotonic and beta blocking activities” (Glaxo Inc., priority 1990, dated 1992)",
  "test_system": "dP/dt (contractility) in barbiturate-anesthetized dogs",
  "experiment": "Anesthetized dog, inotropic effect (baseline left ventricular dP/dt)",
  "type": "in vivo, mongrel dogs",
  "conditions": "with atenolol",
  "method": "Inotropic effects were evaluated in barbiturate-anesthetized dogs by differentiating left intraventricular pressure. This procedure was carried out essentially as described by M. K. Grizzel et al in the FASEB Journal, Vol. 3, page 1039, abstract 4728 (1989). […] Cardiac output was determined via thermodilution with a Spectramed computer (Starcom, Oxnard, Calif.) and a 5F Swan Ganz catheter which was inserted into the right jugular vein and positioned in the pulmonary artery. […] A lead II electrocardiogram was measured using subcutaneous electrodes. […] Rectal temperature was monitored and maintained at 37°-38° C. with a heating pad (Baxter Health Care model K20, McGaw Park, Ill.). All variables were recorded using a Gould 3800S physiograph.\nIsoproterenol (0.1-0.5 mg/kg) was injected i.v. into the cephalic vein at 10 min intervals except for when the test drug infusion was begun. […] Inhibition of the isoproterenol responses on contractility (dP/dt), heart rate and diastolic blood pressure were determined at each dose of test compound. The inotropic effect of each compound was determined by comparing the level of dP/dt at the end of each 10 min period to that of the level of dP/dt just prior to the infusion of test compound. […]",
  "data": [
    {"compound": "O=C(COc1ccc(C2=NNC(=O)CC2)cc1Cl)NCCNC[C@H](O)COc1ccccc1", "note": "[Example 19, 6-{4-[N-[2-[3-phenoxy-2-hydroxypropylamino]ethyl]carbamoylmethoxy]-3-chlorophenyl}-4,5-dihydro-3(2H)-pyridazinone]", "values": [
      {"measurement": "inotropic effects, blockade by atenolol", "value": "not blocked by atenolol"}
    ]}
  ]
}
